Key:
[1] = Stability to Phase I metabolism in rat S9 liver fraction; settings: after 90 minutes, 37° C.
Experimental: (§1) Test compounds were incubated in rat and human liver S9 fraction at 37° C. up to 90 minutes in order to evaluate their stability to Phase I metabolism by hepatic enzymes. Each test compound was incubated at μM concentration (50 μM when the samples were analysed by UV/HPLC, 1 or 2 μM when the samples were analysed by LC-MS/MS) with S9 fraction (protein content 2 mg/m L) in 100 mM phosphate buffer (pH 7.4), 3.3 mM MgCl2 and 1.3 mM NADPH for 0, 10, 30, 60 and 90 minutes at 37° C. in a thermostated oscillating bath. The reaction was stopped placing samples on ice bath and adding acidified acetonitrile. After centrifugation (10 minutes at 14000 rpm) an aliquot of the supernatant was diluted with water, filtered with 0.45 μm regenerated cellulose syringe filters and injected in HPLC-UV or in LC-MS/MS. The percentage of the remaining amount at the various incubation times with respect to the initial amount were calculated.

[2] = Stability in human plasma; settings: after 4 hours, 37° C.
Stability in rat plasma = settings: after 4 hours, 37° C.
recombinant human HDAC6 = recombinant human HDAC6 (Homo sapiens (Human), UniProt Q9UBN7); experiment: Enzymatic screening, HDAC6 inhibition (fluorogenic FdL_G substrate); assay type: biochemical
Summary of the method: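 Enzyme was preincubated with compound (8 doses, triplicate, 1% DMSO) in 25 mM Tris-HCl pH 8, 130 mM NaCl, 0.05% Tween-20, 10% glycerol, with BSA. A FLUOR DE LYS-Green substrate was then added, and fluorescence was read after developer plus 2 μM TSA.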

[3] = Stability to Phase I metabolism in human S9 liver fraction; settings: after 90 minutes, 37° C.
Experimental: as §1

recombinant human HDAC1 = recombinant human HDAC1 (Homo sapiens (Human), UniProt Q13547); experiment: Enzymatic screening, HDAC1 inhibition (fluorogenic FdL_G substrate); assay type: biochemical
Summary of the method: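 Recombinant human HDAC1 inhibition was measured fluorometrically using the FLUOR DE LYS-Green (FdL_G) substrate. Compounds at 8 doses (1% DMSO final) in Tris-HCl pH 8 buffer with NaCl, Tween-20 and glycerol were preincubated in triplicate with enzyme and 1 mg/mL BSA, then given substrate. Developer I plus 2 μM TSA was added, and fluorescence read after 25 minutes in the dark.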

Sequence of recombinant human HDAC6 (Q9UBN7 whole entry): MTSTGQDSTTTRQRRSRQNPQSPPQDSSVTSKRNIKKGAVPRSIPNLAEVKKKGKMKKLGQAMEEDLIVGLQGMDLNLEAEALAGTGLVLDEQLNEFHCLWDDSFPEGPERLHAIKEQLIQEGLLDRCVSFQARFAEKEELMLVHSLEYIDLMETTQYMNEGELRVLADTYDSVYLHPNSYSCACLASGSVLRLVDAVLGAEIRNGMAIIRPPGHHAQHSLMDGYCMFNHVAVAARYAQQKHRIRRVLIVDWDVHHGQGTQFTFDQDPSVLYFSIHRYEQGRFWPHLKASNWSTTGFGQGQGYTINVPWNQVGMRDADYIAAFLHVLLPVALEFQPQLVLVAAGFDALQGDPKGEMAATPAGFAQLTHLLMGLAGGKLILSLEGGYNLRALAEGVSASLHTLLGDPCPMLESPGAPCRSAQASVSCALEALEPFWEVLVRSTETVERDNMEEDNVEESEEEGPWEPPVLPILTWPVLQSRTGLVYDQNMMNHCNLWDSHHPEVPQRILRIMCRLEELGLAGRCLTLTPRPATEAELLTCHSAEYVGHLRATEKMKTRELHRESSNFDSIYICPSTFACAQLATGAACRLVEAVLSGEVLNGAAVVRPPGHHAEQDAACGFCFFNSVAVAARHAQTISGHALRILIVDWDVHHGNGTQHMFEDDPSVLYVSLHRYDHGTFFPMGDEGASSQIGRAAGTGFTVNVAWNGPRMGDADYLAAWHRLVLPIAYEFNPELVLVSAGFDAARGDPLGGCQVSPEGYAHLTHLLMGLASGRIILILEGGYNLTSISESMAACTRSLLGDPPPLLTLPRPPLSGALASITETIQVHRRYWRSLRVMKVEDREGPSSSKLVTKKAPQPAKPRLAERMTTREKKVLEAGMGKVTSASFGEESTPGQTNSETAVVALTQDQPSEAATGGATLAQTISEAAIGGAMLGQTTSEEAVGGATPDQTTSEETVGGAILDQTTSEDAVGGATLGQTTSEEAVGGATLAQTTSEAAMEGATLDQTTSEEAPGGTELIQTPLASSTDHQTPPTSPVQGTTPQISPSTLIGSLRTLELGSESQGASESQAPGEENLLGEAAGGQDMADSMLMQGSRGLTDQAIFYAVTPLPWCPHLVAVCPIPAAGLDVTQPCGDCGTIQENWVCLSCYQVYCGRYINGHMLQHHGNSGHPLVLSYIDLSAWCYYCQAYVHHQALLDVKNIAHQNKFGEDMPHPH
Sequence of recombinant human HDAC1 (Q13547 whole entry): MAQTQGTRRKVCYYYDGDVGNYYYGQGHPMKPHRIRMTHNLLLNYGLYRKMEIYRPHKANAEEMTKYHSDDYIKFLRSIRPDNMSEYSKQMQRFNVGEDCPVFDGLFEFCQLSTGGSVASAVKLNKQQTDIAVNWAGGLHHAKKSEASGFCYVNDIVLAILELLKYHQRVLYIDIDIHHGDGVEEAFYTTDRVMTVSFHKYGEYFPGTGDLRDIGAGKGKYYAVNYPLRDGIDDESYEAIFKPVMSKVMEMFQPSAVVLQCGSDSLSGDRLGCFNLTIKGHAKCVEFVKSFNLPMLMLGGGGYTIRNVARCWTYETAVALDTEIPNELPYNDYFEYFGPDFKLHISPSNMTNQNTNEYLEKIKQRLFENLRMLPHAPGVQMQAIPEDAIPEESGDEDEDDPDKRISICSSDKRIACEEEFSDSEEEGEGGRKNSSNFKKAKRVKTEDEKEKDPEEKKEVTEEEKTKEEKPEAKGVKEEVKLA

SMILES | residual percentage in RAT S9 FRACTION [1] [%] | residual percentage in HUMAN PLASMA [2] [%] | residual percentage in RAT PLASMA (Stability in rat plasma) [%] | IC50 (recombinant human HDAC6) [µM] | residual percentage in HUMAN S9 FRACTION [3] [%] | IC50 (recombinant human HDAC1) [µM]
O=C1Nc2ccc(-c3cn(Cc4ccc(-c5nnc(C(F)F)o5)cn4)nn3)cc2[C@@]12CCNC2 (single isomer, unassigned) [compound 273, 5-(1-((5-(5-(difluoromethyl)-1,3,4-oxadiazol-2-yl)pyridin-2-yl)methyl)-1H-1,2,3-triazol-4-yl)spiro[indoline-3,3′-pyrrolidin]-2-one] | 99 | 83 | 74 | 0.022 | 92 | > 200
CCC[C@@H](c1ccc(-c2nnc(C(F)F)o2)cc1)n1cc(-c2ccc(N)nc2)nn1 (stereo in doubt) [compound 193, 5-(1-(1-(4-(5-(difluoromethyl)-1,3,4-oxadiazol-2-yl)phenyl)butyl)-1H-1,2,3-triazol-4-yl)pyridin-2-amine] | 80 | 81 | 92 | 0.104 | 87 | > 200
CC[C@H](c1ccc(-c2nnc(C(F)F)o2)cc1)n1cc(-c2ccc(N)nc2)nn1 (stereo in doubt) [compound 194, 5-(1-(1-(4-(5-(difluoromethyl)-1,3,4-oxadiazol-2-yl)phenyl)propyl)-1H-1,2,3-triazol-4-yl)pyridin-2-amine] | 77 | 90 | 88 | 0.104 | 95 | > 200
O=C1NCc2ccc(-c3nnn(Cc4c(F)cc(-c5nnc(C(F)F)o5)cc4F)n3)cc21 [compound 57, 6-(2-(4-(5-(difluoromethyl)-1,3,4-oxadiazol-2-yl)-2,6-difluorobenzyl)-2H-tetrazol-5-yl)isoindolin-1-one] | 86 | 62 | 68 | – | 70 | –
O=C(Nc1cccc(-c2cn(Cc3c(F)cc(-c4nnc(C(F)F)o4)cc3F)nn2)c1)N1CCOCC1 [compound 78, N-(3-(1-(4-(5-(difluoromethyl)-1,3,4-oxadiazol-2-yl)-2,6-difluorobenzyl)-1H-1,2,3-triazol-4-yl)phenyl)morpholine-4-carboxamide] | 78 | 62 | – | 0.032 | 94 | > 200
C[C@H](c1ccc(-c2nnc(C(F)F)o2)cc1)n1cc(-c2ccc(N)nc2)nn1 [compound 106, (R)-5-(1-(1-(4-(5-(difluoromethyl)-1,3,4-oxadiazol-2-yl)phenyl)ethyl)-1H-1,2,3-triazol-4-yl)pyridin-2-amine] | 69 | 86 | 78 | – | 78 | –
COc1ncc(NCc2ccc(-c3cn(Cc4ccc(-c5nnc(C(F)F)o5)cc4)nn3)cc2)cc1C(N)=O [compound 138, 5-((4-(1-(4-(5-(difluoromethyl)-1,3,4-oxadiazol-2-yl)benzyl)-1H-1,2,3-triazol-4-yl)benzyl)amino)-2-methoxynicotinamide] | 66 | 92 | – | 0.054 | 70 | > 200
C[C@@H](c1ccc(-c2nnc(C(F)F)o2)cc1)n1cc(-c2ccc(N)nc2)nn1 [compound 255, (S)-5-(1-(1-(4-(5-(difluoromethyl)-1,3,4-oxadiazol-2-yl)phenyl)ethyl)-1H-1,2,3-triazol-4-yl)pyridin-2-amine] | 76 | 91 | 57 | – | 98 | –
CNc1ccc2cc(-c3nnn(Cc4ccc(-c5nnc(C(F)F)o5)c(F)c4F)n3)ccc2n1 [compound 407, 6-(2-(4-(5-(difluoromethyl)-1,3,4-oxadiazol-2-yl)-2,3-difluorobenzyl)-2H-tetrazol-5-yl)-N-methylquinolin-2-amine] | – | – | – | 0.136 | – | 1000
Nc1ccc(-c2noc(Cc3ccc(-c4nnc(C(F)F)o4)c(F)c3)n2)cc1 [compound 408, 4-(5-(4-(5-(difluoromethyl)-1,3,4-oxadiazol-2-yl)-3-fluorobenzyl)-1,2,4-oxadiazol-3-yl)aniline] | – | – | – | 0.08 | – | > 1000
CCNc1ccc2cc(-c3nnn(Cc4cc(F)c(-c5nnc(C(F)F)o5)cc4F)n3)ccc2n1 [compound 409, 6-(2-(4-(5-(difluoromethyl)-1,3,4-oxadiazol-2-yl)-2,5-difluorobenzyl)-2H-tetrazol-5-yl)-N-ethylquinolin-2-amine] | – | – | – | 0.42 | – | 1000
CCNc1ccc2cc(-c3nnn(Cc4ccc(-c5nnc(C(F)F)o5)c(F)c4)n3)ccc2n1 [compound 410, 6-(2-(4-(5-(difluoromethyl)-1,3,4-oxadiazol-2-yl)-3-fluorobenzyl)-2H-tetrazol-5-yl)-N-ethylquinolin-2-amine] | – | – | – | 0.348 | – | 1000
Cn1c(N)nc2cc(-n3cc(Cc4ccc(-c5nnc(C(F)F)o5)cc4)nn3)ccc21 [compound 414, 5-[4-({4-[5-(difluoromethyl)-1,3,4-oxadiazol-2-yl]phenyl}methyl)-1H-1,2,3-triazol-1-yl]-1-methyl-1H-1,3-benzodiazol-2-amine] | – | – | – | 0.461 | – | 1000
Nc1ncnc2sc(-c3cn(Cc4ccc(-c5nnc(C(F)F)o5)cc4F)nn3)cc12 [compound 416, 6-[1-({4-[5-(difluoromethyl)-1,3,4-oxadiazol-2-yl]-2-fluorophenyl}methyl)-1H-1,2,3-triazol-4-yl]thieno[2,3-d]pyrimidin-4-amine] | – | – | – | 0.046 | – | 1000
Fc1cc(-c2nnc(C(F)F)o2)ccc1Cc1nc(-c2ccc(NC3=NCCN3)cc2)no1 [compound 420, N-(4-(5-(4-(5-(difluoromethyl)-1,3,4-oxadiazol-2-yl)-2-fluorobenzyl)-1,2,4-oxadiazol-3-yl)phenyl)-4,5-dihydro-1H-imidazol-2-amine] | – | – | – | 0.012 | – | > 1000
Nc1nccc2cc(-c3nnn(Cc4ccc(-c5nnc(C(F)F)o5)cc4Cl)n3)ccc12 [compound 422, 6-(2-(2-chloro-4-(5-(difluoromethyl)-1,3,4-oxadiazol-2-yl)benzyl)-2H-tetrazol-5-yl)isoquinolin-1-amine] | – | – | – | 0.249 | – | 1000
Nc1ncc2cc(-c3nnn(Cc4cc(F)c(-c5nnc(C(F)F)o5)cc4F)n3)ccc2n1 [compound 423, 6-(2-(4-(5-(difluoromethyl)-1,3,4-oxadiazol-2-yl)-2,5-difluorobenzyl)-2H-tetrazol-5-yl)quinazolin-2-amine] | – | – | – | 0.099 | – | 1000
FC(F)c1nnc(-c2ccc(Cn3nnc(-c4ccc5cnccc5c4)n3)c(Cl)c2)o1 [compound 426, 2-(3-chloro-4-((5-(isoquinolin-6-yl)-2H-tetrazol-2-yl)methyl)phenyl)-5-(difluoromethyl)-1,3,4-oxadiazole] | – | – | – | 0.345 | – | 1000

Source: patent US20230286970A1, “NOVEL OXADIAZOLE-BASED SELECTIVE HDAC6 INHIBITORS” (ITALFARMACO S.P.A., priority 2020, published 2023)
